Assay results published in article PMC7481357, “N-terminal Myristoylation Enhanced the Antimicrobial Activity of Antimicrobial Peptide PMAP-36PW” (Frontiers in Cellular and Infection Microbiology, 2020).
“Also recorded” adds a separate entry of the source. Residues, ends and D or L forms follow the SMILES beside them. *: point of attachment. Myristoyl = CCCCCCCCCCCCCC(=O)*

Key:
[1] = test system: L. monocytogenes CICC 21634; assay type: cell-based, Listeria monocytogenes
Method: (§1) The MICs of Myr-36PW in vitro were measured through microdilution in accordance with the Clinical and Laboratory Standards Institute (CLSI, [2020]). The bacterial cells were cultured for 12 h at 37°C in the appropriate medium and then diluted to 1 × 10^6 CFU/mL. Equal volumes (100 μL) of bacterial cell suspension and two-fold serially diluted different concentrations peptides (0.0039–256 μg/mL) were added to each well of the sterile 96-well plate. The samples were incubated for 18 h at 37°C. After incubation, the MICs of the peptides were determined by evaluating the growth based on the OD600 of the cultures.

[2] = test system: S. aureus ATCC 25923; assay: Subcutaneous abscess model; assay type: in vivo, BALB/c mice; conditions: injected 20 μL, 1 μg/μL, once a day for 3 days; for Bacterial CFU in abscess area: n = 5
Method: A subcutaneous abscess model in vivo was established as previously reported (Zhao et al., [2019]). The mouse dorsal region with 3.0 cm diameter was treated with hair pusher. A total of 120 mice were randomly divided into two experimental models, one was challenged with S. aureus ATCC 25923 (2.5 × 10^8 CFU/mL, 60 μL), and the other was challenged with P. aeruginosa GIM 1.551 (3.0 × 10^8 CFU/mL, 60 μL). In the S. aureus ATCC 25923 model, 60 mice were divided into six groups of 10 members. The mice with no infection and treatment was used as a blank control, those directly injected with PBS (20 μL) as the negative control group, those injected with benzylpenicillin potassium (20 μL, 1 μg/μL) as the positive control group, and the remaining three groups as the treatment groups injected with Myr-36PW (20 μL, 1 μg/μL), PMAP-36PW (20 μL, 1 μg/μL), and PMAP-36 (20 μL, 1 μg/μL). The procedure in P. aeruginosa GIM 1.551 model is the same as that in S. aureus ATCC 25923 model, except for the use of ampicillin sodium as a positive control. Treatment once a day for 3 days was initiated when the mice developed prominent pustules on their backs. A day after the treatment, the size of the abscess was observed, and its tissues were excised, homogenized, and serially diluted. Bacteria CFU counts were calculated.
Figure 10 Treatment efficacy of subcutaneous abscess by Myr-36PW in vivo. Mice were injected with S. aureus ATCC 25923 or P. aeruginosa GIM 1.551 to develop a subcutaneous abscess before treatment. (A) Changes in the abscess area of mice after 3 days treatment. (B,C) Quantitative analysis of bacterial CFU in abscess area that received 3 days treatment under various experimental conditions. The number of CFU in each treatment group was normalized by using the CFU of the experimental group divided by the CFU of the PBS group (100%). BP is benzylpenicillin potassium, AS is ampicillin sodium. Data represent the mean ± SD of five individual experiments. *P < 0.05 and **P < 0.01, compared with PBS. ^#P < 0.05 and ^##P < 0.01, compared with PMAP-36PW.

[3] = test system: S. aureus ATCC 25923; assay type: cell-based, Staphylococcus aureus
Method: as §1

[4] = test system: S. aureus ATCC 25923; assay: Peritonitis model; assay type: in vivo, BALB/c mice; conditions: intraperitoneal 60 μL, 1 μg/μL, once a day for 3 days; for Liver pathogenic scores: compared with PBS group; for Liver pathogenic scores / Bacterial CFU in liver and spleen homogenate / Spleen pathogenic scores: n = 5
Method: The peritonitis model in vivo was generated by intraperitoneally injecting S. aureus ATCC 25923 (2.5 × 10^9 CFU/mL, 140 μL). Sixty mice were randomly divided into six groups of 10 members: those who received no infection and treatment was used as a blank control, those with […] administration of PBS (60 μL) as the negative control group, those administered with benzylpenicillin potassium (60 μL, 1 μg/μL) as the positive control group, and the remaining three groups corresponded to three antimicrobial peptide groups of Myr-36PW (60 μL, 1 μg/μL), PMAP-36PW (60 μL, 1 μg/μL), and PMAP-36 (60 μL, 1 μg/μL). After 4 h post-inoculation, treatment was initiated by intraperitoneal injection once a day for 3 days. The mice were sacrificed 24 h the treatment. Changes in the appearance of anatomical tissues were observed. The liver and spleen tissues were removed aseptically from the mice, and half of these samples were gently fixed in buffered formaldehyde solution for histopathological assessment by hematoxylin and eosin (H&E) staining. Pathological changes were scored to assess individual therapeutic status as described previously (Song et al., [2015]; Lei et al., [2018]). The remaining half of livers and spleens were added with 1 mL of PBS, homogenized, and serially diluted. Bacterial CFU counts were measured.
Figure 9 Therapeutic potency of peritonitis by Myr-36PW in vivo. The livers and spleens (n = 5) in each group were collected on day 4 after the intraperitoneal injection of S. aureus ATCC 25923. (A) Morphological changes in liver and spleen tissues. (B) Representative histopathological images of processed liver and spleen sections with hematoxylin and eosin (H&E) staining. Images are presented at a magnification of 40×. a: central venous hemorrhage. b: the cells fuse into pieces, and the nucleus dissolves and disappears. c: cytoplasmic cavitation. (C,D) Pathological scores of the liver and spleen sections. Scoring standard: 1 indicated no pathology, 2 indicated perivascular infiltrates, 3 indicated perivascular or interstitial infiltrates affecting <20% of the section, 4 indicated perivascular or interstitial infiltrates affecting 20–50% of the section, and 5 indicated perivascular or interstitial infiltrates affecting >50% of the section. (E,F) Bacterial CFU in liver and spleen homogenate. BP is benzylpenicillin potassium. Data represent the mean ± SD of five individual experiments.

[5] = test system: P. aeruginosa GIM 1.551; assay type: cell-based, Pseudomonas aeruginosa
Method: as §1

[6] = test system: S. typhimurium SL 1344; assay type: cell-based, Salmonella typhimurium
Method: as §1

Compound	MICs ([1]; CICC 21634, 18 h)	Abscess area [2]	Bacterial CFU in abscess area [2]	MICs ([3]; ATCC 25923, 18 h)	Liver and spleen histopathology (H&E) [4]	Liver pathogenic scores [4]	Bacterial CFU in liver and spleen homogenate [4]	Spleen pathogenic scores [4]	MICs ([5]; GIM 1.551, 18 h)	MICs ([6]; SL 1344, 18 h)	MICs of different classes of antibiotics ([1]; L. monocytogenes CICC 21634, * indicates resistant (CLSI, 2020))	MICs of different classes of antibiotics ([3]; S. aureus ATCC 25923, * indicates resistant (CLSI, 2020))	MICs of different classes of antibiotics ([5]; P. aeruginosa GIM 1.551, * indicates resistant (CLSI, 2020))	MICs of different classes of antibiotics ([6]; S. typhimurium SL 1344, * indicates resistant (CLSI, 2020))
CCCCCCCCCCCCCC(=O)NCC(=O)NCC(=O)N[C@@H](CCCNC(=N)N)C(=O)N[C@@H](Cc1ccccc1)C(=O)N[C@@H](CCCNC(=N)N)C(=O)N[C@@H](CCCNC(=N)N)C(=O)N[C@@H](CC(C)C)C(=O)N[C@@H](CCCNC(=N)N)C(=O)N[C@@H](CCCCN)C(=O)N[C@@H](CCCCN)C(=O)N[C@H](C(=O)N[C@@H](CCCNC(=N)N)C(=O)N[C@@H](CCCCN)C(=O)N[C@@H](CCCNC(=N)N)C(=O)N[C@@H](CC(C)C)C(=O)N[C@@H](CCCCN)C(=O)N[C@@H](CCCCN)C(=O)N[C@H](C(=O)NCC(=O)N[C@@H](CCCCN)C(=O)N[C@H](C(=O)N[C@@H](CC(C)C)C(=O)N[C@@H](CCCCN)C(=O)N[C@@H](Cc1c[nH]c2ccccc12)C(=O)N[C@H](C(=O)N[C@@H](Cc1c[nH]c2ccccc12)C(=O)N[C@@H](Cc1c[nH]c2ccccc12)C(=O)N[C@H](C(=O)N[C@H](C(=O)NCC(=O)N[C@@H](CO)C(=O)N[C@H](C(=O)N1CCC[C@H]1C(=O)N[C@@H](CC(C)C)C(=O)NCC(=O)N[C@@H](CS)C(=O)NCC(=O)O)[C@@H](C)CC)C(C)C)[C@@H](C)CC)[C@@H](C)CC)C(C)C)[C@@H](C)CC)[C@@H](C)O [Myr-36PW] (Myristoyl-GGRFRRLRKKTRKRLKKIGKVLKWIWWIVGSIPLGCG-OH; C-terminus assumed)	0.5 µg/mL	significantly reduced the abscess area and effectively suppressed its growth	lower than that in PBS group (P < 0.01)	0.0020 µg/mL	the liver cells of mice were neatly arranged with clear cell boundaries and no pathological changes in spleen tissues	significantly lower than PBS group (P < 0.01)	significantly decreased compared with that of PMAP-36PW group (P < 0.05)	displayed significant difference (P < 0.01); also recorded: lower than those for PMAP-36PW group (P < 0.05)	0.25 µg/mL	8 µg/mL				
CC1(C)S[C@@H]2[C@H](NC(=O)Cc3ccccc3)C(=O)N2[C@H]1C(=O)O [Benzylpenicillin potassium]		significantly reduced the abscess area and effectively suppressed its growth	lower than that in PBS group (P < 0.01)		the liver cells of mice were neatly arranged with clear cell boundaries and no pathological changes in spleen tissues	significantly lower than PBS group (P < 0.01)	significantly decreased compared with that of PMAP-36PW group (P < 0.05)	displayed significant difference (P < 0.01); also recorded: lower than those for PMAP-36PW group (P < 0.05)			64 µg/mL	<0.25 µg/mL	64 µg/mL	16 µg/mL
